From PubChem BioAssay AID1963976 (Molecular Pharmacology Branch, DTP, NCI, 2024)

Test system: 435261-313-R-J1-PDC tumor spheroid viability
Test: Anticancer human tumor 435261-313-R-J1-PDC patient-derived colon adenocarcinoma cell line growth inhibition [PI3K]
Conditions: spheroids with HUVEC and MSC; for IC50: curve of first compound; for viability, T/C: stronger effect = lower value
Method in brief: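 Combination activity was assessed by viability in multicellular tumor spheroids carrying HUVEC and MSC components. Agents were tested with PI3K inhibitors from a Cmax-based top dose (or 10 microM) downward in half-log increments.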

[1] = second compound 0.0316 µM, first compound 0.0316 µM
[2] = second compound 0.0316 µM, first compound 0.1 µM
[3] = second compound 0.1 µM, first compound 0.0316 µM
[4] = second compound 0.1 µM, first compound 0.1 µM
[5] = second compound 0.316 µM, first compound 0.0316 µM
[6] = second compound 0.316 µM, first compound 0.1 µM
[7] = second compound 1 µM, first compound 0.0316 µM
[8] = second compound 1 µM, first compound 0.1 µM
[9] = second compound 3.16 µM, first compound 0.0316 µM
[10] = second compound 3.16 µM, first compound 0.1 µM
[11] = second compound 10 µM, first compound 0.0316 µM
[12] = second compound 10 µM, first compound 0.1 µM
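Also: spheroids exposed to compounds for 7 days.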

Question: With CC(=O)c1c(C)c2cnc(Nc3ccc(N4CCNCC4)cn3)nc2n(C2CCCC2)c1=O + Cc1nc(NC(=O)N2CCCC2C(N)=O)sc1-c1ccnc(C(C)(C)C(F)(F)F)c1 as the compound, how does the IC50 (second compound 0.0316 µM) read?
Answer: > 100 nM

Question: And the IC50 (second compound 0.1 µM)?
Answer: > 100 nM

Question: What about the IC50 (second compound 0.316 µM) of the same compound?
Answer: 0.316 nM

Question: And the IC50 (second compound 1 µM)?
Answer: < 0.316 nM

Question: And the IC50 (second compound 3.16 µM)?
Answer: < 0.316 nM

Question: What about the IC50 (second compound 10 µM) of the same compound?
Answer: < 0.316 nM

Question: What about the viability, T/C (second compound 0.0316 µM, first compound 0.000316 µM) of the same compound?
Answer: 61.5%

Question: And the viability, T/C (second compound 0.0316 µM, first compound 0.001 µM)?
Answer: 91.9%

Question: And the viability, T/C (second compound 0.0316 µM, first compound 0.00316 µM)?
Answer: 96.5%

Question: What about the viability, T/C (second compound 0.0316 µM, first compound 0.01 µM) of the same compound?
Answer: 66%

Question: What about the viability, T/C [1] of the same compound?
Answer: 88.5%

Question: And the viability, T/C [2]?
Answer: 59.1%

Question: What about the viability, T/C (second compound 0.1 µM, first compound 0.000316 µM) of the same compound?
Answer: 68%

Question: And the viability, T/C (second compound 0.1 µM, first compound 0.001 µM)?
Answer: 69.4%

Question: What about the viability, T/C (second compound 0.1 µM, first compound 0.00316 µM) of the same compound?
Answer: 69.5%

Question: What about the viability, T/C (second compound 0.1 µM, first compound 0.01 µM) of the same compound?
Answer: 69.5%

Question: What about the viability, T/C [3] of the same compound?
Answer: 74.7%

Question: And the viability, T/C [4]?
Answer: 66.1%

Question: And the viability, T/C (second compound 0.316 µM, first compound 0.000316 µM)?
Answer: 40.9%

Question: And the viability, T/C (second compound 0.316 µM, first compound 0.001 µM)?
Answer: 60.9%

Question: And the viability, T/C (second compound 0.316 µM, first compound 0.00316 µM)?
Answer: 40.9%

Question: And the viability, T/C (second compound 0.316 µM, first compound 0.01 µM)?
Answer: 52.5%

Question: What about the viability, T/C [5] of the same compound?
Answer: 41.3%

Question: What about the viability, T/C [6] of the same compound?
Answer: 32.5%

Question: And the viability, T/C (second compound 1 µM, first compound 0.000316 µM)?
Answer: 26.9%

Question: And the viability, T/C (second compound 1 µM, first compound 0.001 µM)?
Answer: 27.5%

Question: What about the viability, T/C (second compound 1 µM, first compound 0.00316 µM) of the same compound?
Answer: 35.2%

Question: What about the viability, T/C (second compound 1 µM, first compound 0.01 µM) of the same compound?
Answer: 33.5%

Question: What about the viability, T/C [7] of the same compound?
Answer: 26.6%

Question: And the viability, T/C [8]?
Answer: 21.2%

Question: And the viability, T/C (second compound 3.16 µM, first compound 0.000316 µM)?
Answer: 14.7%

Question: And the viability, T/C (second compound 3.16 µM, first compound 0.001 µM)?
Answer: 14.2%

Question: What about the viability, T/C (second compound 3.16 µM, first compound 0.00316 µM) of the same compound?
Answer: 13.9%

Question: What about the viability, T/C (second compound 3.16 µM, first compound 0.01 µM) of the same compound?
Answer: 16.8%

Question: And the viability, T/C [9]?
Answer: 16.9%

Question: What about the viability, T/C [10] of the same compound?
Answer: 15.9%

Question: And the viability, T/C (second compound 10 µM, first compound 0.000316 µM)?
Answer: 10.2%

Question: And the viability, T/C (second compound 10 µM, first compound 0.001 µM)?
Answer: 7.93%

Question: What about the viability, T/C (second compound 10 µM, first compound 0.00316 µM) of the same compound?
Answer: 7.66%

Question: What about the viability, T/C (second compound 10 µM, first compound 0.01 µM) of the same compound?
Answer: 9.02%

Question: And the viability, T/C [11]?
Answer: 10.4%

Question: And the viability, T/C [12]?
Answer: 5.66%

Question: How did the IC50 (second compound 0.0316 µM) turn out when CCCS(=O)(=O)Nc1ccc(F)c(C(=O)c2c[nH]c3ncc(-c4ccc(Cl)cc4)cc23)c1F + Cc1nc(NC(=O)N2CCCC2C(N)=O)sc1-c1ccnc(C(C)(C)C(F)(F)F)c1 was run?
Answer: 5150 nM

Question: What about the IC50 (second compound 0.1 µM) of the same compound?
Answer: 4870 nM

Question: What about the IC50 (second compound 0.316 µM) of the same compound?
Answer: 4370 nM

Question: And the IC50 (second compound 1 µM)?
Answer: 31.6 nM

Question: And the IC50 (second compound 3.16 µM)?
Answer: < 31.6 nM

Question: What about the IC50 (second compound 10 µM) of the same compound?
Answer: < 31.6 nM

Question: And the viability, T/C [1]?
Answer: 68.7%

Question: And the viability, T/C [2]?
Answer: 117%

Question: What about the viability, T/C (second compound 0.0316 µM, first compound 0.316 µM) of the same compound?
Answer: 121%

Question: And the viability, T/C (second compound 0.0316 µM, first compound 1 µM)?
Answer: 107%

Question: What about the viability, T/C (second compound 0.0316 µM, first compound 3.16 µM) of the same compound?
Answer: 83%

Question: What about the viability, T/C (second compound 0.0316 µM, first compound 10 µM) of the same compound?
Answer: 5.07%

Question: And the viability, T/C [3]?
Answer: 78.3%

Question: What about the viability, T/C [4] of the same compound?
Answer: 95.7%

Question: And the viability, T/C (second compound 0.1 µM, first compound 0.316 µM)?
Answer: 104%

Question: What about the viability, T/C (second compound 0.1 µM, first compound 1 µM) of the same compound?
Answer: 83.9%

Question: And the viability, T/C (second compound 0.1 µM, first compound 3.16 µM)?
Answer: 77%

Question: And the viability, T/C (second compound 0.1 µM, first compound 10 µM)?
Answer: 6.18%

Question: And the viability, T/C [5]?
Answer: 57.6%

Question: And the viability, T/C [6]?
Answer: 78%

Question: And the viability, T/C (second compound 0.316 µM, first compound 0.316 µM)?
Answer: 70.4%

Question: What about the viability, T/C (second compound 0.316 µM, first compound 1 µM) of the same compound?
Answer: 64.5%

Question: And the viability, T/C (second compound 0.316 µM, first compound 3.16 µM)?
Answer: 67.8%

Question: And the viability, T/C (second compound 0.316 µM, first compound 10 µM)?
Answer: 4.86%

Question: And the viability, T/C [7]?
Answer: 25.2%

Question: What about the viability, T/C [8] of the same compound?
Answer: 37.8%

Question: What about the viability, T/C (second compound 1 µM, first compound 0.316 µM) of the same compound?
Answer: 73.2%

Question: And the viability, T/C (second compound 1 µM, first compound 1 µM)?
Answer: 59.3%

Question: What about the viability, T/C (second compound 1 µM, first compound 3.16 µM) of the same compound?
Answer: 38.3%

Question: And the viability, T/C (second compound 1 µM, first compound 10 µM)?
Answer: 4.97%

Question: And the viability, T/C [9]?
Answer: 17.6%

Question: What about the viability, T/C [10] of the same compound?
Answer: 21.1%

Question: And the viability, T/C (second compound 3.16 µM, first compound 0.316 µM)?
Answer: 32.8%

Question: And the viability, T/C (second compound 3.16 µM, first compound 1 µM)?
Answer: 35.9%

Question: What about the viability, T/C (second compound 3.16 µM, first compound 3.16 µM) of the same compound?
Answer: 24.6%

Question: And the viability, T/C (second compound 3.16 µM, first compound 10 µM)?
Answer: 4.64%

Question: What about the viability, T/C [11] of the same compound?
Answer: 11.3%

Question: And the viability, T/C [12]?
Answer: 12.2%

Question: And the viability, T/C (second compound 10 µM, first compound 0.316 µM)?
Answer: 14.2%

Question: What about the viability, T/C (second compound 10 µM, first compound 1 µM) of the same compound?
Answer: 15.7%

Question: And the viability, T/C (second compound 10 µM, first compound 3.16 µM)?
Answer: 14.9%

Question: What about the viability, T/C (second compound 10 µM, first compound 10 µM) of the same compound?
Answer: 1.88%
